The target in this assay is T1, human GnRH receptor (Homo sapiens, UniProt P30968).
T1 sequence (P30968 1-328): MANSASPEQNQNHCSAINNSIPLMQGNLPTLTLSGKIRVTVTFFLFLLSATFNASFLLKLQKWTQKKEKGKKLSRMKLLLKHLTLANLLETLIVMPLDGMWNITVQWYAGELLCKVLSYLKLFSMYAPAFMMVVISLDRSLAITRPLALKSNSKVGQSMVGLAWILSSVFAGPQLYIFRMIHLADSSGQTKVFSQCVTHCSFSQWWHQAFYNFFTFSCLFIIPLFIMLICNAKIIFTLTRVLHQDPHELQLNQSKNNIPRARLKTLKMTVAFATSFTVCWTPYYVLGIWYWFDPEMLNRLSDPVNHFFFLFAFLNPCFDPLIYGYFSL
Kind of assay: IP-One HTRF assay with buserelin (at EC80) stimulation. Type of assay: cell-based. The following applies: CHO cells stably expressing human GnRH receptor, read-out: Potency in IP-One HTRF assay, given as IC50. A digest of the protocol:
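Ten-point duplicate titrations (20 μM to 1 nM) were fitted by 4-parameter model to normalized 665/620 nm HTRF ratios, 0% = no compound, 100% = no agonist. Assay measured IP1 accumulation in human GnRH-R CHO cells stimulated 1 h at 37° C with EC80 buserelin, then lysed 1 h at 22° C.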
(In general: Time-resolved FRET reads energy transfer from a long-lived donor to a nearby acceptor.)
Regarding `CN(C)S(=O)(=O)c1cccc(NC(=O)c2ccc3c(c2)C2(CCS(=O)(=O)CC2)C(C2CC2)N3S(=O)(=O)c2ccc(F)cc2)c1` (centres unmarked) [Example 37, 2-cyclopropyl-N-[3-(N,N-dimethylsulfamoyl)phenyl]-1-[(4-fluorophenyl)sulfonyl]-1,2,2′,3′,5′,6′-hexahydrospiro[indole-3,4′-thiopyran]-5-carboxamide 1′,1′-dioxide], the concentration for half-maximal inhibition (IC50) came to 78 nM. For `O=C(NCC1CCCC1)c1ccc2c(c1)C1(CCS(=O)(=O)CC1)C(C1CC1)N2S(=O)(=O)c1ccc(F)cc1` (centres unmarked) [Example 38, N-(cyclopentylmethyl)-2-cyclopropyl-1-[(4-fluorophenyl)sulfonyl]-1,2,2′,3′,5′,6′-hexahydrospiro[indole-3,4′-thiopyran]-5-carboxamide 1′,1′-dioxide] the value was 136 nM; for `COc1cccc(S(=O)(=O)N2c3ccc(C(=O)NCc4ncccc4C(F)(F)F)cc3C3(CCS(=O)(=O)CC3)C2C2CC2)c1` (centres unmarked) [Example 39, 2-cyclopropyl-1-[(3-methoxyphenyl)sulfonyl]-N-{[3-(trifluoromethyl)pyridin-2-yl]methyl}-1,2,2′,3′,5′,6′-hexahydrospiro[indole-3,4′-thiopyran]-5-carboxamide 1′,1′-dioxide], 53 nM. For `COc1cccc(S(=O)(=O)N2c3ccc(C(=O)NCc4ccccc4C(F)(F)F)cc3C3(CCS(=O)(=O)CC3)C2C2CC2)c1` (centres unmarked) [Example 40, 2-cyclopropyl-1-[(3-methoxyphenyl)sulfonyl]-N-[2-(trifluoromethyl)benzyl]-1,2,2′,3′,5′,6′-hexahydrospiro[indole-3,4′-thiopyran]-5-carboxamide 1′,1′-dioxide] the value was 32 nM; for `COc1cccc(S(=O)(=O)N2c3ccc(C(=O)NCc4ncccc4Cl)cc3C3(CCS(=O)(=O)CC3)C2C2CC2)c1` (centres unmarked) [Example 41, N-[(3-chloropyridin-2-yl)methyl]-2-cyclopropyl-1-[(3-methoxyphenyl)sulfonyl]-1,2,2′,3′,5′,6′-hexahydrospiro[indole-3,4′-thiopyran]-5-carboxamide 1′,1′-dioxide], 234 nM. To `COc1cccc(S(=O)(=O)N2c3ccc(C(=O)Nc4cccc(S(N)(=O)=O)c4)cc3C3(CCS(=O)(=O)CC3)C2C2CC2)c1` (centres unmarked) [Example 42, 2-cyclopropyl-1-[(3-methoxyphenyl)sulfonyl]-N-(3-sulfamoylphenyl)-1,2,2′,3′,5′,6′-hexahydrospiro[indole-3,4′-thiopyran]-5-carboxamide 1′,1′-dioxide] belongs 96 nM; to `COc1cccc(S(=O)(=O)N2c3ccc(C(=O)Nc4cccc(S(=O)(=O)N(C)C)c4)cc3C3(CCS(=O)(=O)CC3)C2C2CC2)c1` (centres unmarked) [Example 43, 2-cyclopropyl-N-[3-(N,N-dimethylsulfamoyl)phenyl]-1-[(3-methoxyphenyl)sulfonyl]-1,2,2′,3′,5′,6′-hexahydrospiro[indole-3,4′-thiopyran]-5-carboxamide 1′,1′-dioxide], 56 nM. As to `COc1cccc(S(=O)(=O)N2c3ccc(C(=O)NCc4ccccc4Cl)cc3C3(CCS(=O)(=O)CC3)C2C2CC2)c1` (centres unmarked) [Example 44, N-(2-chlorobenzyl)-2-cyclopropyl-1-[(3-methoxyphenyl)sulfonyl]-1,2,2′,3′,5′,6′-hexahydrospiro[indole-3,4′-thiopyran]-5-carboxamide 1′,1′-dioxide], the half-inhibitory concentration (IC50) came out at 31 nM. For `COc1cccc(S(=O)(=O)N2c3ccc(C(=O)NCc4ncccc4C)cc3C3(CCS(=O)(=O)CC3)C2C2CC2)c1` (centres unmarked) [Example 45, 2-cyclopropyl-1-[(3-methoxyphenyl)sulfonyl]-N-[(3-methylpyridin-2-yl)methyl]-1,2,2′,3′,5′,6′-hexahydrospiro[indole-3,4′-thiopyran]-5-carboxamide 1′,1′-dioxide] the value was 299 nM; for `COc1cccc(S(=O)(=O)N2c3ccc(C(=O)NCc4ccc(F)cc4Cl)cc3C3(CCS(=O)(=O)CC3)C2C2CC2)c1` (centres unmarked) [Example 46, N-(2-chloro-4-fluorobenzyl)-2-cyclopropyl-1-[(3-methoxyphenyl)sulfonyl]-1,2,2′,3′,5′,6′-hexahydrospiro[indole-3,4′-thiopyran]-5-carboxamide 1′,1′-dioxide], 81 nM; for `COc1cccc(S(=O)(=O)N2c3ccc(C(=O)NCc4ccccc4F)cc3C3(CCS(=O)(=O)CC3)C2C2CC2)c1` (centres unmarked) [Example 47, 2-cyclopropyl-N-(2-fluorobenzyl)-1-[(3-methoxyphenyl)sulfonyl]-1,2,2′,3′,5′,6′-hexahydrospiro[indole-3,4′-thiopyran]-5-carboxamide 1′,1′-dioxide], 133 nM. For `COC(=O)c1cccc(NC(=O)c2ccc3c(c2)C2(CCS(=O)(=O)CC2)C(C2CC2)N3S(=O)(=O)c2cccc(OC)c2)c1` (centres unmarked) [Example 48, methyl 3-[({2-cyclopropyl-1-[(3-methoxyphenyl)sulfonyl]-1′,1′-dioxido-1,2,2′,3′,5′,6′-hexahydrospiro[indole-3,4′-thiopyran]-5-yl}carbonyl)amino]benzoate] the value was 55 nM; for `COc1cccc(S(=O)(=O)N2c3ccc(C(=O)Nc4cccc(C(=O)O)c4)cc3C3(CCS(=O)(=O)CC3)C2C2CC2)c1` (centres unmarked) [Example 50, 3-[({2-cyclopropyl-1-[(3-methoxyphenyl)sulfonyl]-1′,1′-dioxido-1,2,2′,3′,5′,6′-hexahydrospiro[indole-3,4′-thiopyran]-5-yl}carbonyl)amino]benzoic acid], 54 nM. To `O=C(NCc1ncccc1F)c1ccc2c(c1)C1(CCS(=O)(=O)CC1)C(C1CC1)N2S(=O)(=O)c1ccc(F)cc1` (centres unmarked) [Example 52, 2-cyclopropyl-1-[(4-fluorophenyl)sulfonyl]-N-[(3-fluoropyridin-2-yl)methyl]-1,2,2′,3′,5′,6′-hexahydrospiro[indole-3,4′-thiopyran]-5-carboxamide 1′,1′-dioxide] belongs 752 nM. Turning to `COc1cccc(S(=O)(=O)N2c3ccc(C(=O)NCc4ncccc4F)cc3C3(CCS(=O)(=O)CC3)C2C2CC2)c1` (centres unmarked) [Example 53, 2-cyclopropyl-N-[(3-fluoropyridin-2-yl)methyl]-1-[(3-methoxyphenyl)sulfonyl]-1,2,2′,3′,5′,6′-hexahydrospiro[indole-3,4′-thiopyran]-5-carboxamide 1′,1′-dioxide], the concentration for half-maximal inhibition (IC50) was 617 nM. In the case of `C=CCC1N(S(=O)(=O)c2cccc(C(=O)OC)c2)c2ccc(C(=O)NCc3ccccc3Cl)cc2C12CCS(=O)(=O)CC2` (centres unmarked) [Example 54, methyl 3-({5-[N-(2-chlorobenzyl)carbamoyl]-1′,1′-dioxido-2-(prop-2-en-1-yl)-1,2,2′,3′,5′,6′-hexahydrospiro[indole-3,4′-thiopyran]-1-yl}sulfonyl)benzoate], the half-maximal inhibitory concentration (IC50) came to 91 nM. For `C=CC1N(S(=O)(=O)c2cccc(C(=O)OC)c2)c2ccc(C(=O)NCc3ccccc3Cl)cc2C12CCS(=O)(=O)CC2` (centres unmarked) [Example 55, methyl 3-({5-[N-(2-chlorobenzyl)carbamoyl]-1′,1′-dioxido-2-vinyl-1,2,2′,3′,5′,6′-hexahydrospiro[indole-3,4′-thiopyran]-1-yl}sulfonyl)benzoate] the value was 622 nM; for `C=CCC1N(S(=O)(=O)c2cccc(C(=O)O)c2)c2ccc(C(=O)NCc3ccccc3Cl)cc2C12CCS(=O)(=O)CC2` (centres unmarked) [Example 56, 3-({5-[(2-chlorobenzyl)carbamoyl]-1′,1′-dioxido-2-(prop-2-en-1-yl)-2′,3′,5′,6′-tetrahydrospiro[indole-3,4′-thiopyran]-1(2H)-yl}sulfonyl)benzoic acid], 136 nM. Consider `C=CCC1N(S(=O)(=O)c2ccc(F)cc2)c2ccc(C(=O)NCc3ncccc3Cl)cc2C12CCS(=O)(=O)CC2` (centres unmarked) [Example 57, N-[(3-chloropyridin-2-yl)methyl]-1-[(4-fluorophenyl)sulfonyl]-2-(prop-2-en-1-yl)-1,2,2′,3′,5′,6′-hexahydrospiro[indole-3,4′-thiopyran]-5-carboxamide 1′,1′-dioxide], for which the IC50 was found to be 71 nM. To `C=CCC1N(S(=O)(=O)c2ccc(F)cc2)c2ccc(C(=O)Nc3cccc(C(=O)OC)c3)cc2C12CCS(=O)(=O)CC2` (centres unmarked) [Example 58, methyl 3-[({1-[(4-fluorophenyl)sulfonyl]-1′,1′-dioxido-2-(prop-2-en-1-yl)-1,2,2′,3′,5′,6′-hexahydrospiro[indole-3,4′-thiopyran]-5-yl}carbonyl)amino]benzoate] belongs 41 nM. With `C=CCC1N(S(=O)(=O)c2ccc(F)cc2)c2ccc(C(=O)Nc3cccc(C(=O)O)c3)cc2C12CCS(=O)(=O)CC2` (centres unmarked) [Example 59, 3-[({1-[(4-fluorophenyl)sulfonyl]-1′,1′-dioxido-2-(prop-2-en-1-yl)-1,2,2′,3′,5′,6′-hexahydrospiro[indole-3,4′-thiopyran]-5-yl}carbonyl)amino]benzoic acid], the 50% inhibitory concentration (IC50) came to 80 nM. To `COC(=O)c1cccc(S(=O)(=O)N2c3ccc(C(=O)NCc4ccccc4Cl)cc3C3(CCS(=O)(=O)CC3)C2C2CC2)c1` (centres unmarked) [Example 60, methyl 3-({5-[(2-chlorobenzyl)carbamoyl]-2-cyclopropyl-1′,1′-dioxido-2′,3′,5′,6′-tetrahydrospiro[indole-3,4′-thiopyran]-1(2H)-yl}sulfonyl)benzoate] belongs 192 nM; to `COc1cccc(S(=O)(=O)N2c3ccc(C(=O)Nc4cccc(S(=O)(=O)N=C(N(C)C)N(C)C)c4)cc3C3(CCS(=O)(=O)CC3)C2C2CC2)c1` (centres unmarked) [Example 62, N-(3-{[bis(dimethylamino)methylidene]sulfamoyl}phenyl)-2-cyclopropyl-1-[(3-methoxyphenyl)sulfonyl]-1,2,2′,3′,5′,6′-hexahydrospiro[indole-3,4′-thiopyran]-5-carboxamide 1′,1′-dioxide], 9.8 nM.

As a reminder, the IC50 is the midpoint of a concentration-inhibition curve.

The record behind these values is patent US20140357655A1, “SPIROINDOLINE DERIVATIVES AS GONADOTROPIN- RELEASING HORMONE RECEPTOR ANTAGONISTS” (Bayer Intellectual Property GmbH, priority 2012, published 2014).
